Results published in patent publication US20230113378A1, “Methods Of Treating Multiple Sclerosis” (priority 2021, published 2023).
Values joined by “and” are separate entries in the source; they are usually repeats but may differ in a detail not shown here. Equal entries are not always repeated. “Also recorded” adds a separate entry of the source.

Assays:
influenza vaccine = conditions: observed previously; cited from earlier work
[1] = COVID-19 infection adverse events in vaccinated RMS patients on ponesimod (study AC-058B202); assay type: in vivo, human
Method: (§1) Participants in this study receiving 20 mg ponesimod who reported COVID-19 vaccination were analyzed. Blood samples collected before and at least 3 weeks after COVID-19 vaccination were tested for SARS-CoV-2 anti-spike-protein (spike) antibody concentrations (Human SARS-CoV-2 PreSpike IgG ELISA, Nexelis). Response to vaccination was defined as seroconversion in case of negative pre-vaccination antibody testing, or a 4-fold antibody concentration increase in case of positive pre-vaccination antibody result. COVID-19 infection adverse events (AEs) were evaluated in this study sub-population.

[2] = test system: SARS-CoV-2 anti-spike-protein (spike) antibody; test: SARS-CoV-2 anti-spike IgG ELISA before and after COVID-19 vaccination in RMS patients on ponesimod (study AC-058B202); assay type: in vivo, human
Method: as §1
Of the 134 participants, 49 participants had both pre- and post-vaccination blood samples tested for anti-spike antibody concentrations. Out of these 49 participants, 40 (81.6%) met the pre-specified definition of response to COVID-19 vaccination. […] Response was defined as pre-vaccination titer≤lower limit of quantification (LLOQ) and post-vaccination titer >LLOQ; or pre-vaccination titer >LLOQ (i.e., seroconversion in case of negative pre-vaccination antibody testing) and post-vaccination titer >4× increase (i.e., a 4-fold antibody concentration increase in case of positive pre-vaccination antibody result).
Patients in the Phase 2 extension study AC-058B202 receiving ponesimod 20 mg who reported COVID-19 vaccination were included in this analysis. Blood samples collected before and at least 3 weeks after vaccination were evaluated with Human SARS-CoV-2 PreSpike IgG (spike antibody) enzyme-linked immunoassay (Nexelis). A responder to vaccination was defined as seroconversion in case of negative pre-vaccination antibody testing, or a 4-fold antibody concentration increase in case of positive pre-vaccination antibody result. Responder analysis was performed by vaccine type, and by pre-vaccination lymphocyte count.

influenza A/PR/8/34 = test: Neutralizing antibody response to inactivated influenza A/PR/8/34 immunization in mice on ponesimod chow; assay type: in vivo, female BALB/c mice
Source text: The neutralizing antibody response to a single intramuscular injection of purified and inactivated influenza A/PR/8/34 was compared in female BALB/c mice that were maintained on different oral ponesimod regimens (Group 1: standard chow; Group 2: continuous specialty chow with ponesimod at 1000 ppm; Group 3: specialty chow with a 4-day discontinuation around immunization).
Mean percentage inhibition of viral infection by A/PR/8/34 with serum samples, ±SEM.
Table 5 presents data regarding dilution from neat serum that results in 50% inhibition of viral infection (ID50).

[3] = inactivated virus vaccines, post-vaccination
[4] = inactivated virus vaccines, pre-vaccination
[5] = mRNA vaccines, post-vaccination
[6] = mixed vaccines, post-vaccination
[7] = mixed vaccines, pre-vaccination
[8] = subjects pre-vaccination negative
[9] = subjects pre-vaccination positive
[10] = unspecified vaccines, post-vaccination
[11] = unspecified vaccines, pre-vaccination
[12] = viral vector vaccines, post-vaccination

SMILES: CCc1cc(/C(C)=N/OCc2ccc(C3CCCCC3)c(C(F)(F)F)c2)ccc1CN1CC(C(=O)O)C1 [siponimod]
- Vaccination response to the influenza vaccine (influenza vaccine): reduced vaccination response

SMILES: CCC/N=C1\S/C(=C\c2ccc(OC[C@H](O)CO)c(Cl)c2)C(=O)N1c1ccccc1C [ponesimod, (R)-5-[3-chloro-4-(2,3-dihydroxy-propoxy)-benz[Z]ylidene]-2-([Z]-propylimino)-3-o-tolyl-thiazolidin-4-one]
- COVID-19 infection AEs leading to death, n (%) ([1]; >=14 D Post Vx): 0 n (%)
- COVID-19 infection AEs leading to treatment discontinuation, n (%) ([1]; >=14 D Post Vx): 0 n (%)
- COVID-19 infection AEs leading to treatment interruption, n (%) ([1]; >=14 D Post Vx): 4 (3.0%) n (%)
- COVID-19 infection AEs, severity Mild, n (%) ([1]; >=14 D Post Vx): 13 (9.7%) n (%)
- COVID-19 infection AEs, severity Moderate, n (%) ([1]; >=14 D Post Vx): 4 (3.0%) n (%)
- COVID-19 infection AEs, severity Severe, n (%) ([1]; >=14 D Post Vx): 0 n (%)
- Serious COVID-19 infection AEs, n (%) ([1]; >=14 D Post Vx): 0 n (%)
- Subjects with COVID-19 infection AEs, n (%) ([1]; >=14 D Post Vx): 17 (12.7%) n (%)
- COVID-19 infection AEs leading to death, n (%) ([1]; >=28 D Post Vx): 0 n (%)
- COVID-19 infection AEs leading to treatment discontinuation, n (%) ([1]; >=28 D Post Vx): 0 n (%)
- COVID-19 infection AEs leading to treatment interruption, n (%) ([1]; >=28 D Post Vx): 4 (3.0%) n (%)
- COVID-19 infection AEs, severity Mild, n (%) ([1]; >=28 D Post Vx): 13 (9.7%) n (%)
- COVID-19 infection AEs, severity Moderate, n (%) ([1]; >=28 D Post Vx): 4 (3.0%) n (%)
- COVID-19 infection AEs, severity Severe, n (%) ([1]; >=28 D Post Vx): 0 n (%)
- Serious COVID-19 infection AEs, n (%) ([1]; >=28 D Post Vx): 0 n (%)
- Subjects with COVID-19 infection AEs, n (%) ([1]; >=28 D Post Vx): 17 (12.7%) n (%)
- COVID-19 infection AEs leading to death, n (%) ([1]; Post-Vx): 0 n (%)
- COVID-19 infection AEs leading to treatment discontinuation, n (%) ([1]; Post-Vx): 0 n (%)
- COVID-19 infection AEs leading to treatment interruption, n (%) ([1]; Post-Vx): 4 (3.0%) n (%)
- COVID-19 infection AEs, severity Mild, n (%) ([1]; Post-Vx): 13 (9.7%) n (%)
- COVID-19 infection AEs, severity Moderate, n (%) ([1]; Post-Vx): 4 (3.0%) n (%)
- COVID-19 infection AEs, severity Severe, n (%) ([1]; Post-Vx): 0 n (%)
- Serious COVID-19 infection AEs, n (%) ([1]; Post-Vx): 0 n (%)
- Subjects with COVID-19 infection AEs, n (%) ([1]; Post-Vx): 17 n (%) and 17 (12.7%) n (%)
- COVID-19 infection AEs leading to death, n (%) ([1]; Pre-Vx): 0 n (%)
- COVID-19 infection AEs leading to treatment discontinuation, n (%) ([1]; Pre-Vx): 0 n (%)
- COVID-19 infection AEs leading to treatment interruption, n (%) ([1]; Pre-Vx): 5 (3.7%) n (%)
- COVID-19 infection AEs, severity Mild, n (%) ([1]; Pre-Vx): 18 (13.4%) n (%)
- COVID-19 infection AEs, severity Moderate, n (%) ([1]; Pre-Vx): 2 (1.5%) n (%)
- COVID-19 infection AEs, severity Severe, n (%) ([1]; Pre-Vx): 0 n (%)
- Serious COVID-19 infection AEs, n (%) ([1]; Pre-Vx): 0 n (%)
- Subjects with COVID-19 infection AEs, n (%) ([1]; Pre-Vx): 20 n (%) and 20 (14.9%) n (%)
- COVID-19 infection AEs leading to treatment interruption, n (%) ([1]; Total): 7 (5.2%) n (%)
- COVID-19 infection AEs, severity Mild, n (%) ([1]; Total): 28 (20.9%) n (%)
- COVID-19 infection AEs, severity Moderate, n (%) ([1]; Total): 6 (4.5%) n (%)
- Subjects with COVID-19 infection AEs, n (%) ([1]; Total): 33 (24.6%) n (%)
- Fold increase from baseline of S binding antibody, geometric mean (95% CI) ([2]; all vaccines, 1st vaccine regimen, ponesimod 20 mg): 12.90 (7.64; 21.78)
- Responders (n/N) (%) (95% CI) ([2]; all vaccines, seroconversion or >4-fold increase): 40 (81.6%) n/N (%)
- Fold increase from baseline, geometric mean (95% CI) ([2]; inactivated virus vaccines): 1.29 (0.50; 3.32)
- Responders (n/N) (%) (95% CI) ([2]; inactivated virus vaccines): 2 (33.3%) n/N (%)
- Positive sample n (%) (95% CI) [2, 3]: 6 (66.7%) (29.93; 92.51) n (%)
- S binding antibody concentration, geometric mean (95% CI) [2, 3]: 84.22 (<LLOQ; 189.22) EU/mL
- Positive sample n (%) (95% CI) [2, 4]: 3 (50.0%) (11.81; 88.19) n (%)
- S binding antibody concentration, geometric mean (95% CI) [2, 4]: 65.88 (<LLOQ; 203.92) EU/mL
- Patients meeting antibody concentration responder criteria ([2]; mRNA COVID-19 vaccines and/or pre-vaccination lymphocyte counts ≥500 cells/mm^3): > 90%
- Fold increase from baseline, geometric mean (95% CI) ([2]; mRNA vaccines): 20.68 (11.35; 37.68)
- Responders (n/N) (%) (95% CI) ([2]; mRNA vaccines): 29 (90.6%) n/N (%)
- Positive sample n (%) (95% CI) [2, 5]: 62 (88.6%) (78.72; 94.93) n (%)
- S binding antibody concentration, geometric mean (95% CI) [2, 5]: 833.22 (513.88; 1351.00) EU/mL
- Positive sample n (%) (95% CI) ([2]; mRNA vaccines, pre-vaccination): 5 (15.6%) (5.28; 32.79) n (%)
- Responders n (%) ([2]; mixed or unspecified vaccine types, 4 participants): 4 (100%) n (%)
- Fold increase from baseline, geometric mean ([2]; mixed vaccines): 11.49
- Positive sample n (%) [2, 6]: 5 (100.0%) n (%)
- S binding antibody concentration, geometric mean [2, 6]: 1525.40 EU/mL
- Positive sample n (%) [2, 7]: 1 (33.3%) n (%)
- S binding antibody concentration, geometric mean [2, 7]: <LLOQ
- SARS-CoV-2 S binding antibody concentration, geometric mean (95% CI) ([2]; post-vaccination, all vaccines, 1st vaccine regimen, ponesimod 20 mg): 621.25 (414.96; 930.08) EU/mL
- Positive sample n (%) (95% CI) ([2]; post-vaccination, all vaccines, positive = value > LLOQ): 89 (86.4%)(78.25; 92.37) n (%)
- Responders n (%) ([2]; pre-vaccination lymphocyte count <500 cells/mm^3, 16 participants): 9 (56.3%) n (%)
- Responders n (%) ([2]; pre-vaccination lymphocyte count ≥500 cells/mm^3, 32 participants): 30 (93.8%) n (%)
- Positive sample n (%) (95% CI) ([2]; pre-vaccination, all vaccines, positive = value > LLOQ): 11 (22.4%) (11.77; 36.62) n (%)
- Post-vaccination Negative N (%) [2, 8]: 5 (13.2%) N (%)
- Post-vaccination Responder N (%) [2, 8]: 33 (86.8%) N (%)
- Post-vaccination Positive N (%) ([2]; subjects pre-vaccination negative (seroconversion)): 33 (86.8%) N (%)
- Post-vaccination Negative N (%) [2, 9]: 0 N (%)
- Post-vaccination Positive N (%) [2, 9]: 11 (100.0%) N (%)
- Post-vaccination Responder N (%) [2, 9]: 7 (63.6%) N (%)
- Fold increase from baseline, geometric mean ([2]; unspecified vaccines): 182.01
- Positive sample n (%) [2, 10]: 2 (100.0%) n (%)
- S binding antibody concentration, geometric mean [2, 10]: 944.31 EU/mL
- Positive sample n (%) [2, 11]: 0 n (%)
- S binding antibody concentration, geometric mean [2, 11]: <LLOQ
- Fold increase from baseline, geometric mean (95% CI) ([2]; viral vector vaccines): 7.76 (2.22; 27.11)
- Responders (n/N) (%) (95% CI) ([2]; viral vector vaccines): 5 (71.4%) n/N (%)
- Positive sample n (%) (95% CI) [2, 12]: 14 (82.4%) (56.57; 96.2) n (%)
- S binding antibody concentration, geometric mean (95% CI) [2, 12]: 390.49 (140.01; 1089.07) EU/mL
- Positive sample n (%) (95% CI) ([2]; viral vector vaccines, pre-vaccination): 2 (28.6%) (3.67; 70.96) n (%)
- Inhibition titer: dilution from neat serum that results in 50% inhibition of viral infection (ID50) (influenza A/PR/8/34; Concomitant (Group 2), Day 35): 0.004
- Inhibition titer: dilution from neat serum that results in 50% inhibition of viral infection (ID50) (influenza A/PR/8/34; Concomitant (Group 2), Day 63): 0.003
- Inhibition titer: dilution from neat serum that results in 50% inhibition of viral infection (ID50) (influenza A/PR/8/34; Concomitant (Group 2), Day 91): 0.004
- Inhibition titer: dilution from neat serum that results in 50% inhibition of viral infection (ID50) (influenza A/PR/8/34; Concomitant (Group 2, continuous ponesimod chow 1000 ppm), Day −1): 0.050
- Inhibition titer: dilution from neat serum that results in 50% inhibition of viral infection (ID50) (influenza A/PR/8/34; Discontinued (Group 3), Day 35): 0.001
- Inhibition titer: dilution from neat serum that results in 50% inhibition of viral infection (ID50) (influenza A/PR/8/34; Discontinued (Group 3), Day 63): 0.002
- Inhibition titer: dilution from neat serum that results in 50% inhibition of viral infection (ID50) (influenza A/PR/8/34; Discontinued (Group 3), Day 91): 0.003
- Inhibition titer: dilution from neat serum that results in 50% inhibition of viral infection (ID50) (influenza A/PR/8/34; Discontinued (Group 3, 4-day discontinuation around immunization), Day −1): 0.001
- Vaccine (antibody) response compared to control mice (influenza A/PR/8/34; Group 2, continuously on ponesimod chow, inactivated H1N1 influenza vaccine): attenuated vaccine response; also recorded: blunted, but not absent
- Plasma drug levels after wash-out (Group 3, after a 2-day wash-out period): cleared from plasma
- Plasma drug levels (Groups 2 and 3, by Day 5, ponesimod chow 1000 ppm): sufficiently high to reduce lymphocyte counts
